Data on 3 compounds can be found in US20220259254A1, “TRANS-CYCLOOCTENE BIOORTHOGONAL AGENTS AND USES IN CANCER AND IMMUNOTHERAPY” (Tambo, Inc., priority 2019, published 2022).

SMILES strings stand for the structures. “Also recorded” adds a separate entry of the source.

Assay [1] deals with MC38 tumor. Nature of the assay: MC38 dual tumor model (injected and non-injected tumor), tumor growth inhibition and survival.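 As to all read-outs here: male C57BL/6 mice carrying two subcutaneous MC38 flank tumors, with treatment given peritumorally beside the larger tumor only and both tumors sized by caliper three times per week.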 The conditions noted are these: for response of non-injected tumors: non-injected tumor (FIG. 6C); for antitumor activity on non-injected tumor compared with G4: P<0.001; for 1-T/C (%) / T/C (%): vs G4 saline; for TV, tumor volume at Day 7: Day 7 = treatment start, all groups peritumoral BIOMATERIAL 1; for survival, statistical difference from Saline: log-rank (Mantel-Cox) test; for tumor growth curves, statistical difference from Saline: unpaired t test with Welch's correction for each day, groups 4, 5, 8.
Experimental: For groups 4-10 (dual tumor model), Immunocompetent male C57BL/6 mice were inoculated SC in the right flank with 5×10^5 MC38 tumor cells (large injected tumor) and in the left flank with 1×10^5 MC38 tumor cells (small non-injected tumor).
Prior to injection, the MC38 cells were suspended in 0.1 mL DMEM media mixed with 50% Matrigel for tumor development. When the average tumor volume of the large tumor reached approximately 100 mm^3, animals were randomly grouped according to body weight and tumor volume into 10 treatment groups with 5-10 mice per group. All groups received peritumoral biomaterial injections (100 μL/mouse) near the large tumor (hereafter, the injected tumor). One hour later, groups 1, 4 and 10 were IV administered saline control (QD×5 days); groups 2, 8 and 9 were IV administered PRODRUG 1 prodrug (28.6 mg/kg Dox Eq QD×5 days; cumulative dose of 143 mg/kg Dox Eq) and group 5 was IV administered Dox HCl control (MTD; 8.1 mg/kg Q4D×3 doses; cumulative dose of 24.3 mg/kg). Tumor volumes for both tumors were measured three times weekly in two dimensions using a caliper, and the volume expressed in mm^3. 8 groups were used to assess the tumor growth inhibition, while groups 9 and 10 (PRODRUG 1, saline n=10/group) were used to determine the immune cell infiltration using flow cytometry. Groups 3, 6 and 7 (n=10) were used to test Dox+ TLR9 agonist (SL-01) and PRODRUG 1+ TLR9 agonist. The TLR9 agonist was given as an intratumoral injection in the primary tumors alone after the last PRODRUG 1 or Dox dose at 25 μg per mouse.
Eighty-five animals were enrolled into the efficacy study. When tumor volume reached an average volume of approximately 100 mm^3, animals were randomized as below using block randomization by Excel based upon their tumor size. […] 5×10^5 MC-38 cells suspended in 100 μL PBS mixed with 50% matrix gel were inoculated subcutaneously into the right flank. For Groups 4 through 10, 1×10^5MC-38 cells suspended in 100 μL PBS mixed with 50% matrix gel were inoculated subcutaneously into the left flank.
Tumor volume was measured thrice weekly in two dimensions using a caliper, and the volume was expressed in mm^3 using the formula: V=0.5 a×b^2, where a and b are the long and short diameters of the tumor, respectively. The tumor volume was then used for calculations of both T-C and T/C values. T-C was calculated with T as the median time (in days) required for the treatment group tumors to reach a predetermined size, and C as the median time (in days) for the control group tumors to reach the same size.

In assay [2] the test system is MC38 tumor. Nature of the assay: MC38 subcutaneous syngeneic single tumor model, tumor growth inhibition. The assay is classed as in vivo, C57BL/6 mice.
The test system of assay [3] is tumor-infiltrating lymphocytes (TILs). The assay can be described thus: flow cytometry of tumor-infiltrating immune cells in dual MC38 tumors. The assay is classed as in vivo, C57BL/6 mice. As to conditions: for % CD45+CD3+ cells versus saline: 2 weeks after treatment completion. On the procedure: In the same study, 2 groups (n=10) of mice with dual MC38 tumors were used for tumor immune cell profiling and were treated with either BIOMATERIAL 1/PRODRUG 1 TREATMENT or saline. Each group was further divided into 2 subgroups of 5 mice each. Tumor collection was performed on the first and second subgroups at 1 and 2 weeks, respectively. […] The cell percentage of each population of interest was identified (Table 6).
For tumor samples, tumor tissues were homogenized using the Miltenyi Tumor Dissociation kit. Single cell suspension from tumor samples were RBC lysed, centrifuged to pellet cells, washed with cold PBS and resuspend cell pellets in the staining buffer and store on ice. Cells were then ready for FACS antibody staining.
1. For each sample, added cells (<10×10^6 cells/tube) in the staining buffer, into an Eppendorf tube labeled with correct sample name. • Panel 1: Live-dead/CD45/CD3/CD4/CD8/CD25/PD-1 • Panel 2: Live-dead/CD45/CD3/CD4/CD25/Foxp3
2. For each tissue type (tumor), prepared two extra tubes (see below) and added cells (<10×10^6 cells/tube) in the staining buffer into these two tubes. • Tube: no-color • Tube: live-dead only*** • Tube: no-color (fix/perm) • Tube: live-dead only (fix/perm) • Note: These two tubes served as gating control for each tissue type. • *** The live-dead only tube was also used for live-dead compensation. Compensation for 8 fluorochrome-conjugated antibodies was prepared separately, using compensation beads from BD and following vendor's manual.
3. Prepared FcR blocking solution (100 μL per tube×tube numbers) by diluting FcR blocking antibody at 1/100 in staining buffer • Note: Since two Brilliant Violet dyes were used in the FACS panel, BD Horizon Brilliant Stain Buffer were added at 5 μL per 100 μL FcR blocking solution
4. Resuspended cell pellets in 100 μL FcR blocking solution and incubated at RT in dark for 3 min
5. For panel 1, added FACS antibodies to desired concentrations (2 μg/ml for each antibody). Incubated at 4° C. in dark for 30 min. For panel 2, added FACS antibodies (except foxp3) to desired concentrations (2 μg/ml for each antibody), incubated at 4° C. in dark for 30 min, then fixated/permeabilized the cells at 4° C. for 40-50 min, and added foxp3 antibody to desired concentrations (2 μg/ml) at 4° C. in dark for 40 min.
6. Added 1 ml staining buffer, centrifuged at 350 g for 4 min at 4° C. to wash and pellet cells
7. Resuspended cells in “Tube: no color” with 500 μL staining buffer (no live-dead added)
8. Resuspended cells in all other tubes with 500 μL staining buffer with 1 μg/ml live-dead
9. Cells were ready for FACS analysis and were subjected to analysis by the Attune Nxt Flow Cytomter (ThermoFisher)
For Group 9 and Group 10, 5 and 5 mice were sacrificed at 1 and 2 weeks respectively after dosing completion. Tumors were collected for FACS.
For orientation: Flow cytometry measures light scatter and fluorescence of single cells or particles in a stream.

For a further assay, the system named is MC38 tumor cells. The assay can be described thus: MC38 tumor re-challenge study. As to conditions: 5×10^5 MC38 cells SC at left flank on Day 70; versus naïve mice; listed as BIOMATERIAL 1/PRODRUG 1. The assay is classed as in vivo, C57BL/6 mice. The procedure:
Aside from the dual-tumor groups, this study also investigated a tumor re-implantation in mice inoculated with only one MC38 tumor. On Day 38, all animals in group G2 (Table 1)(n=8) were treated with a second cycle of BIOMATERIAL 1/PRODRUG 1-100-μL intratumoral BIOMATERIAL 1 injection followed by 5 daily doses (1 dose per day) of PRODRUG 1—this time at 11.9 mg/kg/dose Dox Eq (59.3 mg/kg/cycle Dox Eq).
In addition, mice from group G3 (Table 1) (n=5), and mice from dual tumor groups G6, G7, and G8 (n=10) were rechallenged.

For the next assay, the system named is bacteria. Nature of the assay: activity against bacteria measured by microcalorimetry. Format: cell-based. As to conditions: tested up to 64 μg/ml (32 μM). An excerpt:
Example A7C can be synthesized using a protocol analogous to Example A7B.

Setting [4] is: dual tumor mice, injected tumor.
Where [5] appears, read: dual tumor mice, non-injected tumor.
[6] abbreviates: injected tumor, dual tumor mice, D21.
The mark [7] stands for this setting: injected tumor, dual tumor mice.
The mark [8] stands for this setting: non-injected tumor, dual tumor mice, D24.
[9] abbreviates: non-injected tumor, dual tumor mice.
Where [10] appears, read: injected tumor, single tumor mice, D21, vs G1 saline.

With `COc1cccc2c1C(=O)c1c(O)c3c(c(O)c1C2=O)C[C@@](O)(C(=O)CO)C[C@@H]3O[C@H]1C[C@H](N)[C@H](O)[C@H](C)O1` [Dox, doxorubicin, reference compound], the “antitumor activity on injected tumor compared with control group G4” value in the assay on MC38 tumor [1] (setting [4]) was “significant antitumor activity”. Also, in the assay on MC38 tumor [1] (dual tumor mice), the “response of non-injected tumors” value is “progressive growth” and the “survival, statistical difference from Saline” value is “not significantly different”. In addition, the “antitumor activity on non-injected tumor compared with G4” value in the assay on MC38 tumor [1] (setting [5]) is given as “significant antitumor activity”. Moreover, in the assay on MC38 tumor [1] (setting [6]), the “1-T/C (%)” value was 34% and the “T/C (%)” value is recorded as 66%. In addition, in the assay with MC38 tumor [1] (setting [7]), the “TV, tumor volume at Day 7” value was 93 ± 8.5 mm^3 and the “TV, tumor volume at Day 21” value was found to be 810 ± 196.4 mm^3. Further, in the assay on MC38 tumor [1] (setting [8]), the “1-T/C (%)” value is given as 66% and the “T/C (%)” value is 34%. Further, in the assay on MC38 tumor [1] (setting [9]), the “TV, tumor volume at Day 12” value is 67 ± 18.8 mm^3 and the “TV, tumor volume at Day 24” value is on record as 93 ± 19.2 mm^3. The “tumor growth curves, statistical difference from Saline” value in the assay on MC38 tumor [1] was “not significantly different”.

Consider `COc1cccc2c1C(=O)c1c(O)c3c(c(O)c1C2=O)C[C@@](O)(C(=O)CO)C[C@@H]3O[C@H]1CC(NC(=O)O[C@@H]2/C=C/CC[C@](C)(C(=O)NCC(=O)O)CC2)[C@H](O)C(C)O1` (stereo partly shown) [PRODRUG 1], for which the complete remission in the assay with MC38 tumor [2] (MC38 model) was 10 % of mice treated. For the same compound, in the assay with MC38 tumor [2] (setting [10]), the “1-T/C (%)” value was 62% and the “T/C (%)” value came out at 38%. Besides, the “TV, tumor volume at Day 7” value in the assay with MC38 tumor [2] (injected tumor, single tumor mice, Day 7 = treatment start, all groups peritumoral BIOMATERIAL 1) is recorded as 94 ± 6.3 mm^3. Besides, the “TV, tumor volume at Day 21” value with MC38 tumor [2] (injected tumor, single tumor mice, Day 21, all groups peritumoral BIOMATERIAL 1) was 393 ± 100.5 mm^3. Moreover, the “antitumor activity compared with control group G1” value in the assay on MC38 tumor [2] (single tumor mice, P<0.001) was “significant antitumor activity”. Further, in assay [3] (1 week after completion of treatment), the “immune cell profile versus saline group” value was “no differences”. Moreover, in assay [3] (injected and non-injected tumors, at 2 weeks, not after 1 week, listed as BIOMATERIAL 1/PRODRUG 1), the “total number of TILs” value is given as “increased the total number of TILs”. The “PD-1 expression in CD8+ cells versus saline” value in assay [3] (injected or non-injected tumors) is on record as “no difference”. In assay [3] (injected tumor, 2 weeks), the “percentage of CD4+ cells versus saline” value was “significantly higher” and the “percentage of CD8+ cells versus saline” value is on record as “significantly higher”. For the same compound, the “percentage of PD-1+CD4+ T cells versus saline” value in assay [3] (injected tumors, 2 weeks) is recorded as “higher percentage”. Besides, in assay [3] (injected tumors), the “% CD45+CD3+ cells versus saline” value is “increased”. In assay [3] (injected tumors, 2 weeks, no statistical significance), the “percentage of FoxP3+ cells versus saline” value is given as “lower”. For the same compound, in assay [3] (non-injected tumor, 2 weeks), the “CD4+ cell percentage versus saline” value is given as “significantly higher”. Moreover, in assay [3] (non-injected tumors, 2 weeks), the “CD4+CD25+ FoxP3+ cells (Tregs)” value is “no CD4+CD25+ FoxP3+ cells observed” and the “difference in PD-1+CD4+ T cells versus saline” value is given as “not observed”. Moreover, the “% CD45+CD3+ cells versus saline” value in assay [3] (non-injected tumors) is given as “increased”. The “cell percentage of CD8+ cells versus saline” value in assay [3] (non-injected tumors, 2 weeks, no statistical significance) is recorded as “appeared higher”. For the same compound, the “tumor growth after re-challenge with MC38 cells” value in the assay on MC38 tumor cells is reported as “suppressed; also recorded: sustained anti-tumor response”. In addition, the “antitumor activity on injected tumor compared with control group G4” value in the assay on MC38 tumor [1] (setting [4]) is listed as “significant antitumor activity”. Moreover, the “antitumor response / tumor growth inhibition compared with conventional Dox treatment” value with MC38 tumor [1] (dual tumor mice, injected tumor, p<0.05, listed as BIOMATERIAL 1/PRODRUG 1) was “significantly improved antitumor response; also recorded: improved tumor growth inhibition”. Besides, in the assay on MC38 tumor [1] (dual tumor mice), the “response of non-injected tumors” value is “sustained anti-tumor responses” and the “survival, statistical difference from Saline” value is listed as “significantly different”. Also, the “antitumor activity on non-injected tumor compared with G4” value with MC38 tumor [1] (setting [5]) is “significant antitumor activity”. Moreover, in the assay on MC38 tumor [1] (dual tumor mice, p<0.001, listed as BIOMATERIAL 1/PRODRUG 1), the “overall survival compared with conventional Dox treatment” value is listed as “significantly improved”. Further, in the assay on MC38 tumor [1] (setting [6]), the “1-T/C (%)” value is on record as 75% and the “T/C (%)” value turned out to be 25%. Moreover, in the assay with MC38 tumor [1] (setting [7]), the “TV, tumor volume at Day 7” value is on record as 93 ± 5.6 mm^3 and the “TV, tumor volume at Day 21” value is given as 322 ± 45.9 mm^3. In addition, in the assay on MC38 tumor [1] (setting [8]), the “1-T/C (%)” value worked out at 70% and the “T/C (%)” value was 30%. In addition, in the assay on MC38 tumor [1] (setting [9]), the “TV, tumor volume at Day 12” value is 42 ± 3.8 mm^3 and the “TV, tumor volume at Day 24” value is recorded as 53 ± 5.2 mm^3. In addition, the “tumor growth curves, statistical difference from Saline” value with MC38 tumor [1] is given as “significantly different”.

As to `CC(C)CC(C(=O)N[C@H]1C(=O)N[C@@H](CC(N)=O)C(=O)N[C@H]2C(=O)N[C@H]3C(=O)N[C@H](C(=O)N[C@H](C(=O)O)c4cc(O)cc(O)c4-c4cc3ccc4O)[C@H](O)c3ccc(c(Cl)c3)Oc3cc2cc(c3O[C@@H]2O[C@H](CO)[C@@H](O)[C@H](O)[C@H]2O[C@H]2C[C@](C)(NC(=O)O[C@@H]3/C=C/CC[C@](C)(C(=O)NCC(=O)O)CC3)[C@H](O)[C@H](C)O2)Oc2ccc(cc2Cl)[C@H]1O)N(C)C(=O)O[C@@H]1/C=C/CC[C@](C)(C(=O)NCC(=O)O)CC1` (stereo partly shown) [Vanco-Bis-TCO-Glycine], in the assay with bacteria, the activity against bacteria entry is “no activity”.
